The values that follow come from patent US20030229025A1, “Intranasal administration of MC4-R agonists” (Chiron Corporation, priority 2002, published 2003).

In assay [1] the test system is ob/ob mice. The experiment in a line: Intranasal (IN) efficacy: food intake in fasted ob/ob mice. The format is in vivo. As to conditions: Mus musculus, inhaled or nasal, 4 hour, read-out: % Food Intake Reduction at 4 hour. As to the method:
Subjects: ob/ob mice; approximately 10 weeks old males; body weight 50-60 grams.
The mice were divided into the following groups:
1) Mice received only vehicle. The vehicle was one of the following: water, 10 mM phosphate buffer, 5% captisol in 10 mM phosphate buffer (see Table 1 for details).
2) Mice received a compound of an embodiment of the present invention at a dosage of 1 mg/kg.
3) Mice received a compound of an embodiment of the present invention at a dosage of 3 mg/kg.
4) Mice received a compound of an embodiment of the present invention at a dosage of 6 mg/kg. n=6-8 animals per group
Note: For compound 1 and compound 2, the 1 mg/kg group was not included.
Animals were fasted overnight (˜16 hours), and an MC4-R agonist compound as described in Tables 1-3 was administered at 8:30 am next day. The administration volume was […]/50 grams of body weight. The animal was gently held by one hand, and the compound solution was delivered by the other hand using a pipette with fine tips. The rate of delivery was such that the full amount was given in not less than 60 seconds to ensure maximal absorption. Pre-weighed food was given to the animals immediately after dosing, and animals had free access to water throughout the study. Food weighing was performed at 1, 2, 3, 4, and 6 hours after dosing. On occasion, food weighing was also taken at the 8 hour or 24 hour time point. Animals were euthanized using carbon dioxide followed by cervical dislocation at the end of the experiment.
Mice were fasted overnight. At 8:30 am the next morning, they were dosed with 25 μl of vehicle or compound solution by intranasal delivery. The solution was delivered using a pipette with protein loading tips. The rate of delivery was such that the full amount was given in not less than 60 seconds. Mice were fed with pre-weighed food immediately after dosing, and had access to water the entire time. Food weight was measured at 1, 2, 3, 4, 6, and 8 hours following the dosing. Mice were euthanized at the end of the study using CO2 followed by cervical dislocation.

Assay [2] deals with ob/ob mice. The assay is described as above. The format is in vivo. As to conditions: Mus musculus, inhaled or nasal, 4 hour, read-out: % Food Intake Reduction at 4 hour. The source holds these as a separate data set.
The conditions of assay [3]: acute intranasal administration; ACTH4-10 1 mg, desacetyl-αMSH 1.68 mg (equimolar); cited from earlier work.
The conditions of assay [4]: human subjects, cited from earlier work; for body fat: intranasal administration.

Ends that are not written are not given here.

Turning to `COc1ccc(CCNC(=O)c2ccc(N/C(=N/[C@H]3C[C@H]4C[C@@H]([C@@H]3C)C4(C)C)N3C[C@H](C)N[C@@H](C)C3)nc2)c(F)c1` [Compound 9], in the assay on ob/ob mice [1], the inhibition in vivo at 1 mg/kg was determined as 35.2%, the inhibition in vivo at 3 mg/kg is 70.2% and the inhibition in vivo at 6 mg/kg turned out to be 69.6%.
On to `COc1ccc(CCNC(=O)c2ccc(N/C(=N/[C@H]3C[C@H]4C[C@@H]([C@@H]3C)C4(C)C)N3CCN[C@@H](C)C3)cc2)c(F)c1` [Compound 1], for which, in the assay with ob/ob mice [1], the inhibition in vivo at 3 mg/kg turned out to be 59% and the inhibition in vivo at 6 mg/kg amounted to 91.5%.
`Cc1ccc(CCc2nc3ccc(N/C(=N\[C@H]4C[C@H]5C[C@@H]([C@@H]4C)C5(C)C)N4CCN[C@@H](C)C4)cc3[nH]2)c(C)c1` [Compound 2]: in the assay with ob/ob mice [1], the inhibition in vivo at 3 mg/kg was determined as 23.7% and the inhibition in vivo at 6 mg/kg turned out to be 1.7%.
As to `CCOC(=O)c1ccc(N/C(=N/[C@H]2C[C@H]3C[C@@H]([C@@H]2C)C3(C)C)N2C[C@@H](C)N[C@@H](C)C2)cc1` [Compound 8], in the assay on ob/ob mice [1], the inhibition in vivo at 1 mg/kg came to 37.8%, the inhibition in vivo at 3 mg/kg was determined as 60% and the inhibition in vivo at 6 mg/kg amounted to 84.1%.
In the case of `C[C@@H]1[C@@H](/N=C(\Nc2ccc(NC(=O)CCc3ccc(Cl)cc3Cl)cc2)N2CCN[C@@H](C)C2)C[C@H]2C[C@@H]1C2(C)C` [Compound 6], in the assay with ob/ob mice [1], the inhibition in vivo at 1 mg/kg was -11.9%, the inhibition in vivo at 3 mg/kg came to 21.3% and the inhibition in vivo at 6 mg/kg was 57.4%.
With `C[C@@H]1[C@@H](/N=C(/Nc2ccc(C(=O)OCCc3ccc(Cl)cc3Cl)cc2)N2C[C@@H](C)N[C@@H](C)C2)C[C@H]2C[C@@H]1C2(C)C` [Compound 7], in the assay on ob/ob mice [1], the inhibition in vivo at 1 mg/kg amounted to 23.5%, the inhibition in vivo at 3 mg/kg was found to be 42.7% and the inhibition in vivo at 6 mg/kg was 85.5%.
As to `C[C@@H]1[C@@H](/N=C(\Nc2ccc3[nH]c(CCc4ccc(Cl)cc4Cl)nc3c2)N2CCN[C@@H](C)C2)C[C@H]2C[C@@H]1C2(C)C` [Compound 5], in the assay on ob/ob mice [1], the inhibition in vivo at 1 mg/kg amounted to 10.4%, the inhibition in vivo at 3 mg/kg is 53.1% and the inhibition in vivo at 6 mg/kg turned out to be 67.3%.
Take `C[C@@H]1[C@@H](/N=C(/Nc2ccc(C(=O)N[C@H](CO)Cc3ccc(Cl)cc3Cl)cn2)N2C[C@@H](C)N[C@@H](C)C2)C[C@H]2C[C@@H]1C2(C)C` [Compound 11]: in the assay on ob/ob mice [1], the inhibition in vivo at 1 mg/kg was 27.7% and the inhibition in vivo at 3 mg/kg was found to be 82%. Also, the inhibition in vivo at 0.5 mg/kg in the assay with ob/ob mice [2] was -3.8%.
As to `COc1ccc(CCN2CCc3cc(N/C(=N/[C@H]4C[C@H]5C[C@@H]([C@@H]4C)C5(C)C)N4CCN[C@@H](C)C4)ccc3C2=O)c(F)c1` [Compound 10], in the assay with ob/ob mice [1], the inhibition in vivo at 1 mg/kg is 14.2% and the inhibition in vivo at 3 mg/kg is 39.7%.
Regarding “desacetyl-αMSH: melanocortin peptide intranasally administered in the cited studies of Fehm et al. and Smolnik et al. (SYSMEHFRWGKPV; ends and bridges not checked; UniProt P01189 138-150, looked up)”, the “processing negativity (PN) of the ERP over frontal and central cortical areas” value in assay [3] was “ineffective”. Further, the body fat result in assay [4] was “nonsignificant”.
Consider `COc1ccc(CCn2cnc3cc(N/C(=N/[C@H]4C[C@H]5C[C@@H]([C@@H]4C)C5(C)C)N4CCN[C@@H](C)C4)ccc3c2=O)c(F)c1` [Compound 12], for which, in the assay on ob/ob mice [1], the inhibition in vivo at 1 mg/kg turned out to be 22.6% and the inhibition in vivo at 3 mg/kg was found to be 47.2%. Further, the inhibition in vivo at 0.5 mg/kg with ob/ob mice [2] amounted to 6%.
On to “MSH/ACTH4-10: melanocyte stimulating hormone/adrenocorticotropin4-10; behaviorally active fragment of ACTH (MEHFRWG; Corticotropin; UniProt P01189 141-147, looked up, fragment)”, for which the “processing negativity (PN) of the ERP over frontal and central cortical areas” value in assay [3] is recorded as “reduced the processing negativity”. Moreover, the “plasma leptin levels and insulin levels” value in assay [4] (after intranasal administration) is on record as “decreased”. Moreover, the body fat entry in assay [4] is on record as “reduced body fat”.
On to `COc1ccc(CCNC(=O)c2ccc(N/C(=N/[C@H]3C[C@H]4C[C@@H]([C@@H]3C)C4(C)C)N3C[C@@H](C)N[C@@H](C)C3)cc2)c(F)c1` [Compound 3], for which, in the assay on ob/ob mice [1], the inhibition in vivo at 1 mg/kg is -3%, the inhibition in vivo at 3 mg/kg turned out to be 63.8% and the inhibition in vivo at 6 mg/kg is 70.3%.
